Source: PubChem BioAssay AID256 (DTP/NCI, 2004)
Toxic doses and inconclusive results are not listed. The calls were made as follows: active = survival T/C of 150% or more; inactive = T/C below 125% in these data.

Test system: CD2F1 mice, L1210 leukemia ip, survival T/C
Test: NCI In Vivo Anticancer Drug Screen. Data for tumor model L1210 Leukemia (intraperitoneal) in CD2F1 (CDF1) mice
Settings: endpoint: mean survival time, higher = longer survival
How it was run: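 Antitumor effect is scored in animals hosting a serially transplanted tumor. Values compare compound-dosed animals against vehicle-only controls as a simple quotient.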

[1] = dose: 100.0 mg/kg/injection, schedule: Q01DX009 (ip), vehicle: saline with Tween-80
[2] = dose: 200.0 mg/kg/injection, schedule: Q01DX009 (ip), vehicle: saline with Tween-80
[3] = dose: 400.0 mg/kg/injection, schedule: Q01DX009 (ip), vehicle: saline with Tween-80
[4] = dose: 100.0 mg/kg/injection, schedule: Q04DX003 (ip), vehicle: saline with Tween-80
[5] = dose: 200.0 mg/kg/injection, schedule: Q04DX003 (ip), vehicle: saline with Tween-80
[6] = dose: 400.0 mg/kg/injection, schedule: Q04DX003 (ip), vehicle: saline with Tween-80

Measured: T/C

CNCCc1ccc2cc(OC)c(OC)cc2c1
inactive: dose: 25.0 mg/kg/injection, schedule: Q01DX009 (ip), vehicle: saline sonified 104 % of control | dose: 50.0 mg/kg/injection, schedule: Q01DX009 (ip), vehicle: saline sonified 104 % of control | dose: 100.0 mg/kg/injection, schedule: Q01DX009 (ip), vehicle: saline sonified 104 % of control

CC(=O)c1cccc(OC(=O)c2ccccc2)c1
inactive: dose: 100.0 mg/kg/injection, schedule: Q01DX001 (ip), vehicle: saline with Tween-80 104 % of control | [1] 97 % of control | dose: 200.0 mg/kg/injection, schedule: Q01DX001 (ip), vehicle: saline with Tween-80 94 % of control | [2] 94 % of control | dose: 400.0 mg/kg/injection, schedule: Q01DX001 (ip), vehicle: saline with Tween-80 104 % of control | [3] 91 % of control

C=C(C)c1ccc(C)c(C)c1
inactive: [1] 93 % of control | [2] 98 % of control | [3] 114 % of control

NC(CS(=O)c1ccc([N+](=O)[O-])cc1Cl)C(=O)O (centres undefined)
inactive: [1] 96 % of control

CC1(C)CC(O)(Cc2ccccc2)C(C)(O)c2ccccc21 (centres undefined)
inactive: [1] 102 % of control | [2] 88 % of control | [3] 86 % of control

Cc1cn(C2CC3[O][Sn]([CH3])([CH3])[O]CC3O2)c(=O)[nH]c1=O (centres undefined)
inactive: dose: 12.5 mg/kg/injection, schedule: Q01DX005 (ip), vehicle: other 105 % of control | dose: 25.0 mg/kg/injection, schedule: Q01DX005 (ip), vehicle: other 108 % of control | dose: 50.0 mg/kg/injection, schedule: Q01DX005 (ip), vehicle: other 103 % of control

CC(=O)NCNC(C)=O
inactive: dose: 100.0 mg/kg/injection, schedule: Q01DX001 (ip), vehicle: saline 100 % of control | dose: 200.0 mg/kg/injection, schedule: Q01DX001 (ip), vehicle: saline 93 % of control | dose: 400.0 mg/kg/injection, schedule: Q01DX001 (ip), vehicle: saline 100 % of control

OC(CC1(O)C(F)(F)C(F)(F)C1(F)F)c1ccccc1 (centres undefined)
inactive: [4] 96 % of control | [5] 92 % of control | [6] 90 % of control

CC(O)(P(=O)(O)O)P(=O)(O)O.[NH-]CC[NH-].[NH-]CC[NH-].[Pd+2].[Pd+2]
inactive: dose: 3.13 mg/kg/injection, schedule: Q04DX003 (ip), vehicle: water 106 % of control | dose: 6.25 mg/kg/injection, schedule: Q04DX003 (ip), vehicle: water 103 % of control | dose: 12.5 mg/kg/injection, schedule: Q04DX003 (ip), vehicle: water 87 % of control | dose: 25.0 mg/kg/injection, schedule: Q04DX003 (ip), vehicle: water 103 % of control | dose: 50.0 mg/kg/injection, schedule: Q04DX003 (ip), vehicle: water 93 % of control | dose: 100.0 mg/kg/injection, schedule: Q04DX003 (ip), vehicle: water 102 % of control

N#CC(C#N)=C1CCNc2ccccc21
inactive: [1] 96 % of control | [4] 101 % of control | [2] 94 % of control | [5] 103 % of control | [3] 90 % of control | [6] 97 % of control

CCN(CC)CC(O)CNc1ncnc(N)c1C(=C(C)C)c1ccc(Cl)cc1 (centres undefined)
inactive: dose: 25.0 mg/kg/injection, schedule: Q01DX009 (ip), vehicle: saline with Tween-80 101 % of control | dose: 50.0 mg/kg/injection, schedule: Q01DX009 (ip), vehicle: saline with Tween-80 97 % of control | [1] 97 % of control | [4] 101 % of control

CCC[CH2][Sn]([Cl])([CH2]Cl)[CH2]CCC
inactive: dose: 2.5 mg/kg/injection, schedule: Q04DX003 (ip), vehicle: saline 98 % of control | dose: 5.0 mg/kg/injection, schedule: Q04DX003 (ip), vehicle: saline 97 % of control

CCc1ccccc1N1CCN(C(=O)c2cc(OC)c(OC)c(OC)c2)CC1
inactive: dose: 100.0 mg/kg/injection, schedule: Q01DX009 (ip), vehicle: acetone 118 % of control | dose: 150.0 mg/kg/injection, schedule: Q01DX009 (ip), vehicle: acetone 124 % of control | dose: 225.0 mg/kg/injection, schedule: Q01DX009 (ip), vehicle: acetone 90 % of control

COC(=O)C1C=CCC=C1OC (centres undefined)
inactive: [1] 113 % of control | [2] 104 % of control | [3] 109 % of control
